# Experimental data: patent US6737383B1, “Herbicidal oxadiazolidines” (priority 1999, dated 2004)
# Assays:
# bedstraw = assay: Test B pre/postemergence bedstraw; format: in vivo, Galium aparine
# Method in brief: (§1)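 Herbicidal effect was estimated by eye on a ten-point control scale after plants spent twelve to sixteen days in a greenhouse following soil or foliar treatment. Foliar sprays targeted plants at one to four leaves; all doses were formulated in a non-phytotoxic solvent with surfactant.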
# blackgrass = assay: Test B pre/postemergence blackgrass; format: in vivo, Alopecurus myosuroides
# Method in brief: as §1
# surinam grass = assay: Test B pre/postemergence surinam grass; format: in vivo, Brachiaria decumbens
# Method in brief: as §1
# cocklebur = assay: Test B pre/postemergence cocklebur; format: in vivo, Xanthium strumarium
# Method in brief: as §1
# corn = assay: Test B pre/postemergence corn; format: in vivo, Zea mays
# Method in brief: as §1
# crabgrass = assay: Test B pre/postemergence crabgrass; format: in vivo, Digitaria sanguinalis
# Method in brief: as §1
# giant foxtail = assay: Test B pre/postemergence giant foxtail; format: in vivo, Setaria faberii
# Method in brief: as §1
# morningglory = assay: Test B pre/postemergence morningglory; format: in vivo, Ipomoea hederacea
# Method in brief: as §1
# pigweed = assay: Test B pre/postemergence pigweed; format: in vivo, Amaranthus retroflexus
# Method in brief: as §1
# rape = assay: Test B pre/postemergence rape; format: in vivo, Brassica napus
# Method in brief: as §1
# soybean = assay: Test B pre/postemergence soybean; format: in vivo, Glycine max
# Method in brief: as §1
# sugar beet = assay: Test B pre/postemergence sugar beet; format: in vivo, Beta vulgaris
# Method in brief: as §1
# velvetleaf = assay: Test B pre/postemergence velvetleaf; format: in vivo, Abutilon theophrasti
# Method in brief: as §1
# wheat = assay: Test B pre/postemergence wheat; format: in vivo, Triticum aestivum
# Method in brief: as §1
# wild oat = assay: Test B pre/postemergence wild oat; format: in vivo, Avena fatua
# Method in brief: as §1
# purple nutsedge = assay: Test B pre/postemergence purple nutsedge; format: in vivo, Cyperus rotundus
# Method in brief: as §1
# [1] = Postemergence, Rate 62 g/ha, scale of 0 to 10, 0 is no effect, 10 is complete control
# [2] = Postemergence, Rate 125 g/ha, scale 0 to 10, 0 is no effect, 10 is complete control
# [3] = Postemergence, Rate 500 g/ha, scale of 0 to 10 where 0 is no effect and 10 is complete control
# [4] = Preemergence, Rate 62 g/ha, scale 0 to 10 (0 no effect, 10 complete control)
# [5] = Preemergence, Rate 125 g/ha, scale 0 to 10, 0 is no effect, 10 is complete control
# [6] = Preemergence, Rate 500 g/ha, scale of 0 to 10 where 0 is no effect and 10 is complete control
# [7] = Rate 250 g/ha, Postemergence, scale of 0 to 10 where 0 is no effect and 10 is complete control
structure (smiles),measurement,setting,value
CC(=O)OCCCCn1c(=O)on(C(=O)N(c2ccccc2)C(C)C)c1=O [Compound 565],Bedstraw plant response rating,bedstraw; [1],0
same,Bedstraw plant response rating,bedstraw; [2],0
same,"Plant response rating, Bedstraw",bedstraw; [3],0
same,Bedstraw plant response rating,bedstraw; [4],0
same,Bedstraw plant response rating,bedstraw; [5],0
same,Bedstraw plant response rating (0 to 10 scale),"bedstraw; Preemergence, Rate 250 g/ha",0
same,Bedstraw plant response rating,bedstraw; [6],0
same,Blackgrass plant response rating,blackgrass; [1],0
same,Blackgrass plant response rating,blackgrass; [2],0
same,"Plant response rating, Blackgrass",blackgrass; [3],0
same,Blackgrass plant response rating,blackgrass; [4],0
same,Blackgrass plant response rating,blackgrass; [5],0
same,Blackgrass plant response rating (0 to 10 scale),"blackgrass; Preemergence, Rate 250 g/ha",0
same,Blackgrass plant response rating,blackgrass; [6],0
same,"Plant response rating, Blackgrass",blackgrass; [7],0
same,B. signalgrass plant response rating,surinam grass; [1],0
same,B. signalgrass plant response rating,surinam grass; [2],0
same,"Plant response rating, B. signalgrass",surinam grass; [3],0
same,B. signalgrass plant response rating,surinam grass; [4],0
same,B. signalgrass plant response rating,surinam grass; [5],0
same,"B. signalgrass plant response rating (0 to 10 scale, 0 is no effect, 10 is complete control)","surinam grass; Preemergence, Rate 250 g/ha",0
same,B. signalgrass plant response rating,surinam grass; [6],0
same,"Plant response rating, B. signalgrass",surinam grass; [7],0
same,Cocklebur plant response rating,cocklebur; [1],0
same,Cocklebur plant response rating,cocklebur; [2],0
same,"Plant response rating, Cocklebur",cocklebur; [3],2
same,Cocklebur plant response rating,cocklebur; [4],0
same,Cocklebur plant response rating,cocklebur; [5],0
same,Cocklebur plant response rating (0 to 10 scale),"cocklebur; Preemergence, Rate 250 g/ha",0
same,Cocklebur plant response rating,cocklebur; [6],0
same,"Plant response rating, Cocklebur",cocklebur; [7],2
same,Corn plant response rating,corn; [1],0
same,Corn plant response rating,corn; [2],0
same,"Plant response rating, Corn",corn; [3],0
same,Corn plant response rating,corn; [4],0
same,Corn plant response rating,corn; [5],0
same,Corn plant response rating (0 to 10 scale),"corn; Preemergence, Rate 250 g/ha",0
same,Corn plant response rating,corn; [6],0
same,"Plant response rating, Corn",corn; [7],0
same,Crabgrass plant response rating,crabgrass; [1],0
same,Crabgrass plant response rating,crabgrass; [2],0
same,"Plant response rating, Crabgrass",crabgrass; [3],3
same,Crabgrass plant response rating,crabgrass; [4],0
same,Crabgrass plant response rating,crabgrass; [5],0
same,Crabgrass plant response rating (0 to 10 scale),"crabgrass; Preemergence, Rate 250 g/ha",0
same,Crabgrass plant response rating,crabgrass; [6],2
same,"Plant response rating, Crabgrass",crabgrass; [7],0
same,Giant foxtail plant response rating,giant foxtail; [1],0
same,Giant foxtail plant response rating,giant foxtail; [2],0
same,"Plant response rating, Giant foxtail",giant foxtail; [3],3
same,Giant foxtail plant response rating,giant foxtail; [4],0
same,Giant foxtail plant response rating,giant foxtail; [5],0
same,Giant foxtail plant response rating (0 to 10 scale),"giant foxtail; Preemergence, Rate 250 g/ha",0
same,Giant foxtail plant response rating,giant foxtail; [6],2
same,"Plant response rating, Giant foxtail",giant foxtail; [7],0
same,Morningglory plant response rating,morningglory; [1],3
same,Morningglory plant response rating,morningglory; [2],5
same,"Plant response rating, Morningglory",morningglory; [3],9
same,Morningglory plant response rating,morningglory; [4],0
same,Morningglory plant response rating,morningglory; [5],0
same,Morningglory plant response rating (0 to 10 scale),"morningglory; Preemergence, Rate 250 g/ha",0
same,Morningglory plant response rating,morningglory; [6],0
same,"Plant response rating, Morningglory",morningglory; [7],7
same,Redroot pigweed plant response rating,pigweed; [1],0
same,"Plant response rating, Redroot pigweed",pigweed; [3],6
same,Redroot pigweed plant response rating,pigweed; [4],0
same,Redroot pigweed plant response rating,pigweed; [5],0
same,Redroot pigweed plant response rating (0 to 10 scale),"pigweed; Preemergence, Rate 250 g/ha",0
same,Redroot pigweed plant response rating,pigweed; [6],9
same,"Plant response rating, Redroot pigweed",pigweed; [7],6
same,Rape plant response rating,rape; [1],0
same,Rape plant response rating,rape; [2],0
same,"Plant response rating, Rape",rape; [3],0
same,Rape plant response rating,rape; [4],0
same,Rape plant response rating,rape; [5],0
same,Rape plant response rating (0 to 10 scale),"rape; Preemergence, Rate 250 g/ha",0
same,Rape plant response rating,rape; [6],0
same,"Plant response rating, Rape",rape; [7],0
same,Soybean plant response rating,soybean; [1],2
same,"Plant response rating, Soybean",soybean; [3],3
same,Soybean plant response rating,soybean; [4],0
same,Soybean plant response rating,soybean; [5],0
same,Soybean plant response rating (0 to 10 scale),"soybean; Preemergence, Rate 250 g/ha",0
same,Soybean plant response rating,soybean; [6],0
same,"Plant response rating, Soybean",soybean; [7],3
same,Sugarbeets plant response rating,sugar beet; [1],0
same,"Plant response rating, Sugarbeets",sugar beet; [3],0
same,Sugarbeets plant response rating,sugar beet; [4],0
same,Sugarbeets plant response rating,sugar beet; [5],0
same,Sugarbeets plant response rating (0 to 10 scale),"sugar beet; Preemergence, Rate 250 g/ha",0
same,Sugarbeets plant response rating,sugar beet; [6],0
same,"Plant response rating, Sugarbeets",sugar beet; [7],0
same,Velvetleaf plant response rating,velvetleaf; [1],3
same,"Plant response rating, Velvetleaf",velvetleaf; [3],4
same,Velvetleaf plant response rating,velvetleaf; [4],0
same,Velvetleaf plant response rating,velvetleaf; [5],0
same,Velvetleaf plant response rating (0 to 10 scale),"velvetleaf; Preemergence, Rate 250 g/ha",0
same,Velvetleaf plant response rating,velvetleaf; [6],0
same,"Plant response rating, Velvetleaf",velvetleaf; [7],4
same,Wheat plant response rating,wheat; [1],0
same,"Plant response rating, Wheat",wheat; [3],0
same,Wheat plant response rating,wheat; [4],0
same,Wheat plant response rating,wheat; [5],0
same,Wheat plant response rating (0 to 10 scale),"wheat; Preemergence, Rate 250 g/ha",0
same,Wheat plant response rating,wheat; [6],0
same,"Plant response rating, Wheat",wheat; [7],0
same,Wild oats plant response rating,wild oat; [1],0
same,"Plant response rating, Wild oats",wild oat; [3],0
same,Wild oats plant response rating,wild oat; [4],0
same,Wild oats plant response rating,wild oat; [5],0
same,Wild oats plant response rating (0 to 10 scale),"wild oat; Preemergence, Rate 250 g/ha",0
same,Wild oats plant response rating,wild oat; [6],0
same,"Plant response rating, Wild oats",wild oat; [7],0
same,Nutsedge plant response rating,purple nutsedge; [2],0
same,"Plant response rating, Nutsedge",purple nutsedge; [3],0
same,Nutsedge plant response rating,purple nutsedge; [4],0
same,Nutsedge plant response rating,purple nutsedge; [5],0
same,Nutsedge plant response rating (0 to 10 scale),"purple nutsedge; Preemergence, Rate 250 g/ha",0
same,Nutsedge plant response rating,purple nutsedge; [6],0
same,"Plant response rating, Nutsedge",purple nutsedge; [7],0
